Assay [1] concerns OxyR regulon gene fusions (ahpC-luxCDABE). To be noted: for H2O2 response ratio: ahpC fusion, 0.002% hydrogen peroxide, 30 minutes, LB. How it is done: (§1) To test the stress responses, one or two single colonies of each selected strain were used to inoculate 5.0 ml of LB medium containing 150 μg/ml of ampicillin. These cultures were grown overnight at 37° C. then diluted by adding 50 μl or 100 μl of the overnight culture into 10.0 ml of fresh LB medium (without ampicillin) and grown with agitation at 37° C. until the culture was in exponential phase with readings on a Klett-Summerson colorimeter containing the red filter of between 10 and 40. These actively growing cultures were immediately used to initiate a stress response experiment by adding 50 μl of cultures to 50 μl of LB medium containing various concentrations of chemical in the wells a 96 well luminometer plate. This division of the actively growing culture at the time of chemical addition ensured identical populations were present when the stress was imposed. Light production was measured in a Dynex ML3000 luminometer at 37° C. The dimensionless units of light production, relative light units (RLU), are obtained by comparison with the light reading from an internal light-emitting diode. The cycle mode of the ML3000 luminometer, similar to previous descriptions (Van Dyk et al., Appl. Environ. Microbiol. 60:1414-120) was used.
To test if these strains would report on activation of the OxyR-controlled oxidative stress response, each was treated with hydrogen peroxide at 0.016, 0.008, 0.004, 0.002, 0.001, 0.0005, 0.00025%.

In assay [2] the test system is ahpC-luxCDABE fusions in E. coli host strain DPD2228 (pcnB80). As to conditions: for H2O2 response ratio in pcnB- host: 0.002% hydrogen peroxide, 30 minutes, LB. How it is done: as §1

The record followed here is patent publication US20040009485A1, “Cellular arrays for the identification of altered gene expression” (priority 2002, published 2004).

The structures appear in SMILES notation. Where two headings read alike, the source gives them in different places.

For `OO` [H2O2, hydrogen peroxide], the figures for the H2O2 response ratio in assay [1] (DPD2283 (lux-a.pk051.d5)), in assay [1] (DPD2284 (lux-a.pk051.e3)) and in assay [1] (DPD2285 (lux-a.pk03.d6)) were 1.3, 1.6 and 1.2, respectively. Besides, the induction of bioluminescence result is given as “minimally induced” in assay [1] (three ahpC-luxCDABE strains, 0.016-0.00025% hydrogen peroxide) and “dramatically induced increased bioluminescence” in assay [2] (both ahpC-luxCDABE strains in pcnB- host, each of seven conc 0.004-0.00006%). In addition, the “H2O2 response ratio in pcnB- host” value in assay [2] (plasmid of DPD2283 (lux-a.pk051.d5) in DPD2228) is 16.5; in assay [2] (plasmid of DPD2284 (lux-a.pk051.e3) in DPD2228), 15.3.
